Test results from PubChem BioAssay AID651630 (Sanford-Burnham Center for Chemical Genomics, 2012).
Active and inactive are the calls of the source.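 The calls were made as follows: active = lipid-stain IC50 at or below a set limit, with nuclear-stain toxicity IC50 at least five times higher; inactive = the rest.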

Columns and labels:
DAPI = assay: triacylglycerol accumulation inhibitor potency, dose response, cell-based, panel, Nile Red and DAPI fluorescence, H9c2 (AID 651630); settings: H9c2 cells, DAPI nuclear fluorescence (cytotoxicity counter-readout), oleic acid;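 also: cells exposed to compound overnight before fixation and staining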
TAG = assay: as above; settings: H9c2 cells, Nile Red TAG fluorescence, oleic acid

Row | IC50 (TAG; mean of runs) | IC50 (TAG; run 1) | IC50 (TAG; run 2) | Structure (SMILES) | IC50 cytotoxicity (DAPI nuclear signal decrease) (DAPI; mean of runs) | IC50 cytotoxicity (DAPI nuclear signal decrease) (DAPI; run 1) | IC50 cytotoxicity (DAPI nuclear signal decrease) (DAPI; run 2)
1 | 5 µM | 4.04 µM | 5.97 µM | CCOc1ccc2nc(NC(=O)C3CCCN(S(=O)(=O)c4c(C)noc4C)C3)sc2c1 (stereo not drawn) | > 25 µM (inactive) | > 25 µM | > 25 µM
2 | > 25 µM (inactive) | > 25 µM | > 25 µM | COc1ccc(CC(N)c2csc(NC(=O)Nc3ccccc3C(C)C)n2)cc1 (stereo not drawn) | 21.5 µM (inactive) | 20.3 µM | 22.7 µM
3 | 15.9 µM (inactive) | 13.8 µM | 18 µM | C[C@@H]1CN([C@H](C)CO)C(=O)c2cccc(NC(=O)Nc3ccc(C(F)(F)F)cc3)c2O[C@H]1CN(C)S(=O)(=O)c1cccs1 | > 25 µM (inactive) | > 25 µM | > 25 µM
4 | 5.76 µM | 5.58 µM | 5.93 µM | CCN1CCN(Cc2ccc(NC(=O)c3cc(NC(=O)C(=O)c4c[nH]c5ccccc45)cc(OC)c3)cc2C(F)(F)F)CC1 | 23.4 µM (inactive) | 23.4 µM | 23.4 µM
5 | 18.5 µM (inactive) | 12.9 µM | 24.1 µM | CCOC(=O)Cc1ccc(Nc2nc3cc(-c4sccc4C)sc3c(=O)n2C)cc1 | > 25 µM (inactive) | > 25 µM | > 25 µM
6 | 7.49 µM | 8.2 µM | 6.77 µM | COc1ccc(NC(=O)N(C)[C@H]2C[C@H]3c4[nH]c5ccc(-c6ccc7c(c6)OCO7)cc5c4CCN3C[C@H]2[C@H](C)O)cc1 | > 25 µM (inactive) | > 25 µM | > 25 µM
7 | 17.5 µM (inactive) | 15.5 µM | 19.5 µM | O=C1CCCC2=C1C1(CCCC1)N=C(Nc1nc3cc(-c4ccccc4)ccc3o1)N2 | > 25 µM (inactive) | > 25 µM | > 25 µM
8 | > 25 µM (inactive) | > 25 µM | > 25 µM | CCCCCCSc1ccc([C@H]2N[C@@](CC(C)C)(C(=O)OC)[C@H]3C(=O)N(C)C(=O)[C@@H]23)cc1OC | > 25 µM (inactive) | > 25 µM | > 25 µM
9 | 6.72 µM | 6.96 µM | 6.47 µM | CC(C)C[C@H]1C(=O)N2CCC[C@H]2[C@]2(O)O[C@](NC(=O)[C@@H]3C=C4c5cccc6[nH]c(Br)c(c56)CC4N(C)C3)(C(C)C)C(=O)N12 (stereo partly drawn) | > 25 µM (inactive) | > 25 µM | > 25 µM
10 | > 25 µM (inactive) | > 25 µM | > 25 µM | CNC(=S)NN=C(C)CCCC(C)=NNC(=S)NC | – | 11.3 µM | > 25 µM
11 | – | 22.4 µM | > 25 µM | CCOc1cc(N2CCOCC2)c(OCC)cc1NC(=O)CC12CC3CC(CC(C3)C1)C2 | > 25 µM (inactive) | > 25 µM | > 25 µM
12 | 3.24 µM | 2.27 µM | 4.21 µM | CCOC(=O)[C@@H]1[C@H]2COc3ccc(Br)cc3[C@@H]2N2C(=O)N(c3ccc(C(F)(F)F)cc3)C(=O)[C@@]12C | – | > 25 µM | > 25 µM
13 | – | 17.4 µM | > 25 µM | CCOc1cc2c(cc1O)CCC1C2CCC2(C)C(O)CCC12 (stereo not drawn) | > 25 µM (inactive) | > 25 µM | > 25 µM
14 | 13.9 µM | 13 µM | 14.7 µM | CC1(c2ccccc2)O[C@@H]2C[C@H]3[C@@H]4CCC5=CC(=O)C=C[C@]5(C)[C@@]4(F)[C@@H](O)C[C@]3(C)[C@]2(C(=O)CO)O1 (stereo partly drawn) | > 25 µM (inactive) | > 25 µM | > 25 µM
15 | 10.9 µM | 10.8 µM | 11.1 µM | O=C(Nc1ccc(-c2csc(Nc3cccc(C(F)(F)F)c3)n2)cc1)c1cc([N+](=O)[O-])cc(C(F)(F)F)c1 | > 25 µM (inactive) | > 25 µM | > 25 µM
16 | 11.5 µM | 9.78 µM | 13.3 µM | C[C@@H]1CN([C@@H](C)CO)C(=O)c2cccc(NC(=O)C3CCCCC3)c2O[C@@H]1CN(C)Cc1ccc(Cl)c(Cl)c1 | > 25 µM (inactive) | > 25 µM | > 25 µM

Row | IC50 (TAG; mean of runs) | IC50 (TAG; run 1) | IC50 (TAG; run 2) | Structure (SMILES) | IC50 cytotoxicity (DAPI nuclear signal decrease) (DAPI; mean of runs) | IC50 cytotoxicity (DAPI nuclear signal decrease) (DAPI; run 1) | IC50 cytotoxicity (DAPI nuclear signal decrease) (DAPI; run 2)
17 | 12.2 µM | 16.5 µM | 7.89 µM | Cc1cccc2c(N=Nc3ccc(S(=O)(=O)Nc4ccc(Cl)cc4)cc3[N+](=O)[O-])c(O)[nH]c12 | > 25 µM (inactive) | > 25 µM | > 25 µM
18 | 19.3 µM (inactive) | 19.5 µM | 19.1 µM | COc1ccc2[nH]c3c(c2c1)CCN1C(=O)C(CC(=O)NC/C=C(\C)CCC=C(C)C)C[C@H](C(=O)N(C(C)C)C(C)C)[C@@]31C (stereo partly drawn) | – | 19.8 µM | > 25 µM
19 | 10.6 µM | 10.1 µM | 11.2 µM | C#CCN(C[C@@H]1[C@@H](OC(=O)NCC2CCCCC2)[C@@H](OC(=O)NCC2CCCCC2)CN(C(=O)OC(C)C)N1C(=O)OC(C)C)S(=O)(=O)c1ccc(C)cc1 | > 25 µM (inactive) | > 25 µM | > 25 µM
20 | > 25 µM (inactive) | > 25 µM | > 25 µM | CCCCCOc1ccc(NC(=O)CSc2cccc3cccnc23)cc1 | > 25 µM (inactive) | > 25 µM | > 25 µM
21 | – | 9.64 µM | > 25 µM | CC(C)C[C@H](CO)N(Cc1ccccc1)S(=O)(=O)N(Cc1ccccc1)[C@@H](CO)CC(C)C | > 25 µM (inactive) | > 25 µM | > 25 µM
22 | – | < 0.78 µM | 0.875 µM | Clc1ccc(-c2csc(NNC3=NCCCCC3)n2)cc1 | – | 23.9 µM | > 25 µM
23 | > 25 µM (inactive) | > 25 µM | > 25 µM | N#CC1C=Cc2c(ccc3ccccc23)N1C(=O)c1ccccc1 (stereo not drawn) | > 25 µM (inactive) | > 25 µM | > 25 µM
24 | 19.2 µM (inactive) | 18.9 µM | 19.4 µM | Cc1cc(C(=O)COC(=O)c2ccc([N+](=O)[O-])o2)c(C)n1CC1CCCO1 (stereo not drawn) | – | 16.4 µM | > 25 µM
25 | > 25 µM (inactive) | > 25 µM | > 25 µM | Cc1ccc(CN(C(=O)c2csnn2)C(C(=O)NC2CCCC2)c2ccc(C)o2)cc1 (stereo not drawn) | > 25 µM (inactive) | > 25 µM | > 25 µM
26 | 15.1 µM (inactive) | 14.7 µM | 15.5 µM | CC(=O)Nc1cccc(-c2ccnc3c2CC(C)(C(=O)NCc2ccc(N(C)C)cc2)O3)c1 (stereo not drawn) | > 25 µM (inactive) | > 25 µM | > 25 µM
27 | > 25 µM (inactive) | > 25 µM | > 25 µM | CCOC(=O)[C@H]1[C@H]2COc3ccc(Cl)cc3[C@@H]2N2C(=O)c3cc(OC)ccc3NC(=O)[C@@]12C | > 25 µM (inactive) | > 25 µM | > 25 µM
28 | 6.4 µM | 5.42 µM | 7.37 µM | CC(C)C[C@H]1C(=O)N2CCC[C@H]2[C@]2(O)O[C@](NC(=O)C3C=C4c5cccc6[nH]c(Br)c(c56)C[C@H]4N(C)C3)(C(C)C)C(=O)N12 (stereo partly drawn) | > 25 µM (inactive) | > 25 µM | > 25 µM
29 | 5.58 µM | 5.07 µM | 6.09 µM | CCOC(=O)c1cc(-c2ccccc2)sc1NC(=O)C(C)N1C(=O)NC(C)(c2ccc(Cl)cc2)C1=O (stereo not drawn) | > 25 µM (inactive) | > 25 µM | > 25 µM
30 | > 25 µM (inactive) | > 25 µM | > 25 µM | Cc1cc(NC(=O)CSc2nc(C(C)C)nc3sc4c(c23)CCC(C)C4)no1 (stereo not drawn) | > 25 µM (inactive) | > 25 µM | > 25 µM
31 | > 25 µM (inactive) | > 25 µM | > 25 µM | CN(C)CCCN1c2ccccc2Sc2ccc3ccccc3c21 | > 25 µM (inactive) | > 25 µM | > 25 µM

Row | Structure (SMILES) | IC50 (TAG; mean of runs) | IC50 (TAG; run 1) | IC50 (TAG; run 2) | IC50 cytotoxicity (DAPI nuclear signal decrease) (DAPI; mean of runs) | IC50 cytotoxicity (DAPI nuclear signal decrease) (DAPI; run 1) | IC50 cytotoxicity (DAPI nuclear signal decrease) (DAPI; run 2)
32 | COc1ccc2[nH]c(C)c(CCNCc3cn(C)c4ccccc34)c2c1 | 10.7 µM | 10.2 µM | 11.2 µM | > 25 µM (inactive) | > 25 µM | > 25 µM
